According to PMC7870626, “Neurotoxicity and underlying cellular changes of 21 mitochondrial respiratory chain inhibitors” (Archives of Toxicology, 2021):
Read-outs that look alike come from different tables or passages of the source.

Tests used:
proteasome = test: Proteasomal activity (KE3 assay) in LUHMES cells; type: cell-based, human; conditions: NeuriTox neurite EC25 relative to proteasomal activity EC25, LUHMES
Method: Activity of the proteasome was quantified as described in (Gutbier et al. [2018b]). Briefly, after exposure, culture medium was replaced by assay buffer containing a cell-permeable proteasomal substrate (MeOSuc-Gly-Leu-Phe-AMC, 25 µM (Bachem, Bubendorf, Switzerland) in HBSS). Its AMC-fluorescence (ex: 360 nm, em: 465 nm) increases with proteasomal activity and was monitored for 90 min. Background-corrected data were used for further analysis.

LUHMES cells [1] = test: NeuriTox test: neurite area and viability, 24 h; type: cell-based, human; conditions: for EC25: Homo sapiens
Method: (§1) The NeuriTox test was performed as previously described (Delp et al. [2018b]; Krug et al. [2013a]; Stiegler et al. [2011]). Briefly, cells differentiated for 48 h were re-seeded into 96-well plates at a density of 100,000 cells/cm^2 in DM without cAMP and GDNF, and treated 1 h after seeding for 24 h. Subsequently, multiple endpoints were determined, e.g., neurite outgrowth (i.e., NeuriTox test), resazurin reduction, intracellular ATP content, gene expression levels from TempO-Seq analysis, and proteasomal activity. For the 120 h exposure scenario, LUHMES cells were differentiated for another 3 days after reseeding before they were treated on day 5 (d5) and d7 by a half medium exchange. Endpoints were determined on d10 of differentiation.
Image acquisition and analysis was performed as described previously (Krug et al. [2013a]; Schildknecht et al. [2013]; Stiegler et al. [2011]). In brief, cells were live-stained with 1 µg/ml Hoechst H-33342 and 1 µM calcein-AM and image acquisition was done by an automated high content imager (Cellomics, Waltham, MA, USA). Cell viability was determined as ratio of live cells (cell bodies being Calcein- and Hoechst-positive) relative to the total amount of cells (Hoechst-positive cell bodies). Neurite area was calculated by subtracting the somatic area (Hoechst-positive area plus surrounding) from the calcein-positive area.

HepG2 cells = test: HepG2-based respirometry, total cell respiration (earlier study); conditions: NeuriTox neurite EC25 relative to cell respiration EC25; respirometric data from HepG2-based assays ref van der Stel et al. 2020
LUHMES cells [2] = test: Intracellular ATP content after NeuriTox exposure; type: cell-based; conditions: Homo sapiens; NeuriTox exposure scheme, 24 h; read-out: LUHMES 24 h EC25 ATP (converted)
Method: as §1
Plates from the NeuriTox test were further used after imaging for determination of alternative endpoints. Intracellular ATP was determined as described earlier (Delp et al. [2019]). In brief, CellTiterGlo 2.0 assay mix (Promega) containing luciferase was added after imaging, and luminescence was recorded. For the determination of resazurin reduction, a 10 × resazurin stock solution was added after imaging to the medium (final resazurin concentration 2 µg/ml) (Delp et al. [2018a]). After 60 min incubation, resazurin fluorescence was recorded (ex: 530 nm, em: 590 nm). Background-corrected data was used for further analysis.

SH-SY5Y cells = test: Mitochondrial membrane potential (rhodamine 123), KE2 assay; type: cell-based, human; conditions: for EC25: Homo sapiens, SH-SY5Y differentiated 6 days, treated 24 h, rhodamine-123, read-out: pEC25 MMP (concentration where MMP was reduced by 25%) (converted); for Ratios of EC25 KE4/KE2 MMP: NeuriTox neurite EC25 relative to SH-SY5Y MMP EC25
Method: Cells were plated at a cell density of 29,500 cells/cm^2 and handled as described above for the neurite SH-SY5Y degeneration. On d6 of differentiation, 50% of the medium was replaced by differentiation medium containing 2 µM Rhodamine 123 (ThermoFisher). After 45 min of preloading at 37 °C with 5% CO2 in darkness, the Rhodamine 123 solution was completely removed and cells were carefully washed once with 200 µl DMEM:F12. Subsequently, 50 µl differentiation medium per well were added followed by the addition of 50 µl/well of test compounds in medium. After 24 h of exposure to the test compounds, the nuclei were stained for 30 min with 20 µL of a solution containing 20 µM Hoechst 33342, and the images were then acquired with a 10 × objective lens using the ImageXpress® Micro (Molecular Devices) high content microplate imager. Nuclei were evaluated in the DAPI channel (excitation 377 ± 50 nm, emission 447 ± 60 nm), whereas Rhodamine 123 fluorescence was detected in the FITC channel (excitation 475 ± 34 nm, emission 536 ± 40 nm). Analysis of the Hoechst 33,342 and Rhodamine 123 fluorescence was performed using the MetaXpress® Software (Molecular Devices) with the Transfluor HT plug-in and the parameters nuclei (for Hoechst-33342) and integrated granule intensity (for Rhodamine 123). Mitochondrial membrane potential (MMP) was quantified as the total fluorescence intensity of Rhodamine 123 in relation to the number of Hoechst-stained nuclei.

LUHMES cells [3] = type: cell-based, human; conditions: 24 h, vs 0.1% DMSO; for log2FoldChange AARS: gene AARS; for log2FoldChange AASDHPPT: gene AASDHPPT; for log2FoldChange AATF: gene AATF; for log2FoldChange ABCA1: gene ABCA1; for log2FoldChange ABCA6: gene ABCA6
Method: Cells were cultured and treated as described above for the NeuriTox assay. On d3, after 24 h treatment, culture medium was replaced by 33 µl/well 1 × Biospyder lysis buffer. After 15 min at room temperature, plates were sealed and frozen at -80 °C to complete lysis. Samples were analyzed at Bioclavis (Glasgow) using the TempO-Seq technique and the EU-ToxRisk v2.0 gene probe panel covering ca. 3000 genes (Yeakley et al. [2017]). All genes are listed in the supplementary excel file (containing also all gene regulations). Briefly, a 50 bp fragment of the target gene was amplified. The amplification step also introduced sample-specific barcodes. This allowed pooling of all samples and standard next-generation sequencing of the ensemble. Afterward, adapters were used to allocate the sequenced fragments to the correct samples. Finally, the alignment of all sequenced fragments (FASTQ files) for each sample to the collection of reference 50 bp oligonucleotides was performed for the quantification of reads per gene, also known as the read count values. In a pre-filtering step, samples with a total count < 0.2 million and genes with an average count < 1.5 were removed.
To correct for both read depth and RNA composition, the DESeq2′s median of ratios normalization was applied. The analysis of differentially expressed genes (DEG) of each treatment against the control group was done by the Wald test implemented in DESeq2/R (Love et al. [2014]), including an FDR correction for p-adjusted ≤ 0.05. […] A curve was fit through these concentration–response data to obtain EC10DEG. For comparability, all DEG data were normalized to a positive control. […] The EC10DEG was calculated using an established online open access BMC calculator (BMCeasy) (Krebs et al. [2020]).

[4] = NeuriTox exposure scheme, 24 h, read-out: LUHMES 24 h EC25 NA (neurite area) (converted)
[5] = NeuriTox exposure scheme, 24 h, read-out: LUHMES 24 h EC25 V (viability) (converted)
[6] = NeuriTox test, neurite outgrowth impairment, LUHMES 24 h, read-out: EC25 KE4 (AO) Neurite toxicity (converted)

CCCCCC[C@H]1C(=O)O[C@H](C)[C@H](NC(=O)c2cccc(NC=O)c2O)C(=O)O[C@@H](C)[C@@H]1OC(=O)CC(C)C [Antimycin A]
Ratios of EC25 KE4/KE3 proteasomal (proteasome): 1.1 | Offset between neurite endpoint (LUHMES/SH-SY5Y) and U2OS viability (LUHMES cells [1]): potentially strong neurite-specific toxicant | EC25 (LUHMES cells [1]; [4]): 15.8 µM | EC25 (LUHMES cells [1]; [5]): > 50.1 µM | EC25 (LUHMES cells [1]; [6]): 15.8 µM | Ratios of EC25 KE4/KE1 total respiration (HepG2 cells): 1580 | EC25 (LUHMES cells [2]): 25.1 µM | EC25 (SH-SY5Y cells): 0.0631 µM | Ratios of EC25 KE4/KE2 MMP (SH-SY5Y cells): 257 | log2FoldChange AARS (LUHMES cells [3]; 0.08 µM): -0.20 log2 | log2FoldChange AASDHPPT (LUHMES cells [3]; 0.08 µM): -0.32 log2 | log2FoldChange AATF (LUHMES cells [3]; 0.08 µM): 0.18 log2 | log2FoldChange ABCA1 (LUHMES cells [3]; 0.08 µM): -0.64 log2 | log2FoldChange ABCA6 (LUHMES cells [3]; 0.08 µM): 1.98 log2

COc1cc(CNC(=O)CCCC/C=C/C(C)C)ccc1O [Capsaicin]
EC25 (LUHMES cells [1]; [4]): > 50.1 µM | EC25 (LUHMES cells [1]; [5]): > 50.1 µM | EC25 (LUHMES cells [2]): > 50.1 µM | EC25 (SH-SY5Y cells): > 10 µM | log2FoldChange AARS (LUHMES cells [3]; 0.10 µM): -0.12 log2 | log2FoldChange AASDHPPT (LUHMES cells [3]; 0.10 µM): 0.45 log2 | log2FoldChange AATF (LUHMES cells [3]; 0.10 µM): -0.07 log2 | log2FoldChange ABCA1 (LUHMES cells [3]; 0.10 µM): -0.65 log2 | log2FoldChange ABCA6 (LUHMES cells [3]; 0.10 µM): -2.67 log2

CC1=C(C(=O)Nc2ccccc2)SCCO1 [Carboxin]
Ratios of EC25 KE4/KE3 proteasomal (proteasome): < 0.8 | EC25 (LUHMES cells [1]; [4]): 79.4 µM | EC25 (LUHMES cells [1]; [5]): > 100 µM | EC25 (LUHMES cells [1]; [6]): 79.4 µM | Ratios of EC25 KE4/KE1 total respiration (HepG2 cells): < 8 | EC25 (LUHMES cells [2]): > 100 µM | EC25 (SH-SY5Y cells): 1.58 µM | Ratios of EC25 KE4/KE2 MMP (SH-SY5Y cells): 48 | Decrease of the MMP reached (SH-SY5Y cells; SH-SY5Y, 24 h, non-cytotoxic concentrations): at least 50% | log2FoldChange AARS (LUHMES cells [3]; 0.20 µM): -0.12 log2 | log2FoldChange AASDHPPT (LUHMES cells [3]; 0.20 µM): 0.26 log2 | log2FoldChange AATF (LUHMES cells [3]; 0.20 µM): 0.0462 log2 | log2FoldChange ABCA1 (LUHMES cells [3]; 0.20 µM): -0.37 log2 | log2FoldChange ABCA6 (LUHMES cells [3]; 0.20 µM): 0.78 log2

Cc1ccc(-c2c(Cl)nc(C#N)n2S(=O)(=O)N(C)C)cc1 [Cyazofamid]
EC25 (LUHMES cells [1]; [4]): 50.1 µM | EC25 (LUHMES cells [1]; [5]): > 50.1 µM | EC25 (LUHMES cells [1]; [6]): 50.1 µM | Precipitation in the assay (LUHMES cells [1]; LUHMES NeuriTox concentration range): precipitate in the active concentration range | EC25 (LUHMES cells [2]): > 50.1 µM | EC25 (SH-SY5Y cells): 0.2 µM | Ratios of EC25 KE4/KE2 MMP (SH-SY5Y cells): 225 | log2FoldChange AARS (LUHMES cells [3]; 0.00781 µM): -1.30 log2 | log2FoldChange AASDHPPT (LUHMES cells [3]; 0.00781 µM): 1.09 log2 | log2FoldChange AATF (LUHMES cells [3]; 0.00781 µM): -0.24 log2 | log2FoldChange ABCA1 (LUHMES cells [3]; 0.00781 µM): -1.98 log2 | log2FoldChange ABCA6 (LUHMES cells [3]; 0.00781 µM): 0.44 log2

Cc1ccccc1C(=O)Nc1cccc(OC(C)C)c1 [Mepronil]
Ratios of EC25 KE4/KE3 proteasomal (proteasome): > 0.8 | EC25 (LUHMES cells [1]; [4]): 100 µM | EC25 (LUHMES cells [1]; [5]): > 100 µM | EC25 (LUHMES cells [1]; [6]): > 100 µM | EC25 (LUHMES cells [2]): > 100 µM | EC25 (SH-SY5Y cells): 5.01 µM | log2FoldChange AARS (LUHMES cells [3]; 0.20 µM): 0.46 log2 | log2FoldChange AASDHPPT (LUHMES cells [3]; 0.20 µM): 0.19 log2 | log2FoldChange AATF (LUHMES cells [3]; 0.20 µM): 0.22 log2 | log2FoldChange ABCA1 (LUHMES cells [3]; 0.20 µM): 0.65 log2 | log2FoldChange ABCA6 (LUHMES cells [3]; 0.20 µM): 0.20 log2
